Assays:
Type in all cases: in vivo
Amaranthus retroflexus [1] = test: Post-emergence herbicidal action; settings: rated visually after about 3 weeks vs untreated controls
Outline: (§1)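 Test plants, raised in sandy loam in the greenhouse, were treated 2 to 3 weeks after sowing at application rates of 20 g/ha or lower. Scoring compared treated with untreated plants roughly 3 weeks on, where 100% meant death and 0% meant no visible effect.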

Setaria viridis [2] = test: Post-emergence herbicidal action; settings: rated visually after about 3 weeks vs untreated controls
Outline: as §1

Matricaria inodora [3] = test: Post-emergence herbicidal action; settings: rated visually after about 3 weeks vs untreated controls
Outline: as §1

Lolium rigidum [4] = test: Post-emergence herbicidal action; settings: application rate 20 g/ha, rated visually after about 3 weeks vs untreated controls
Outline: as §1

Avena fatua [5] = test: Post-emergence herbicidal action; settings: application rate 20 g/ha, rated visually after about 3 weeks vs untreated controls
Outline: as §1

Abutilon theophrasti [6] = test: Post-emergence herbicidal action; settings: rated visually after about 3 weeks vs untreated controls
Outline: as §1

Veronica persica [7] = test: Post-emergence herbicidal action
Outline: as §1

Polygonum convolvulus [8] = test: Post-emergence herbicidal action
Outline: as §1

Alopecurus myosuroides [9] = test: Post-emergence herbicidal action; settings: rated visually after about 3 weeks vs untreated controls
Outline: as §1

Viola tricolor [10] = test: Post-emergence herbicidal action
Outline: as §1

Echinochloa crus-galli [11] = test: Post-emergence herbicidal action; settings: rated visually after about 3 weeks vs untreated controls
Outline: as §1

Stellaria media = test: Post-emergence herbicidal action; settings: application rate 5 g/ha, rated visually after about 3 weeks vs untreated controls
Outline: as §1

Digitaria sanguinalis [12] = test: Post-emergence herbicidal action; settings: rated visually after about 3 weeks vs untreated controls
Outline: as §1

Hordeum murinum = test: Post-emergence herbicidal action; settings: application rate 20 g/ha
Outline: as §1

Pharbitis purpurea [13] = test: Post-emergence herbicidal action; settings: rated visually after about 3 weeks vs untreated controls
Outline: as §1

Triticum aestivum = test: Post-emergence crop plant compatibility
Outline: (§2)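 Greenhouse crop plants in sandy loam sprayed at one-leaf stage (2-3 weeks after sowing) with WP or EC formulations plus 0.5% additive, 600 l/ha water, at 5 g/ha or 20 g/ha. Damage scored visually after about 3 weeks as % versus untreated controls (100% = plants dead).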

Amaranthus retroflexus [14] = test: Pre-emergence herbicidal action; settings: application rate 20 g/ha
Text: (§3) B. Pre-Emergence Herbicidal Action and Crop Plant Compatibility Seeds of monocotyledonous and dicotyledonous weed plants and crop plants were placed in plastic or organic planting pots and covered with soil. The compounds of the invention, formulated in the form of wettable powders (WP) or as emulsion concentrates (EC), were then applied to the surface of the covering soil as aqueous suspension or emulsion with addition of 0.5% additive at a water application rate equivalent to 600 l/ha (converted). After the treatment, the pots were placed in a greenhouse and kept under good growth conditions for the test plants. After about 3 weeks, the effect of the preparations was scored visually in comparison with untreated controls as percentages. For example, 100% activity=the plants have died, 0% activity=like control plants. Tables B1 to B13 below show the effects of selected compounds of the general formula (I) according to Tables I.1 to I.36 on various harmful plants and at an application rate corresponding to 80 g/ha or less, which were obtained by the experimental procedure mentioned above.

Setaria viridis [15] = test: Pre-emergence herbicidal action; settings: application rate 20 g/ha
Text: as §3

Matricaria inodora [16] = test: Pre-emergence herbicidal action; settings: application rate 20 g/ha
Text: as §3

Lolium rigidum [17] = test: Pre-emergence herbicidal action; settings: application rate 80 g/ha
Text: as §3

Avena fatua [18] = test: Pre-emergence herbicidal action; settings: application rate 80 g/ha
Text: as §3

Abutilon theophrasti [19] = test: Pre-emergence herbicidal action; settings: application rate 20 g/ha
Text: as §3

Veronica persica [20] = test: Pre-emergence herbicidal action; settings: application rate 20 g/ha
Text: as §3

Polygonum convolvulus [21] = test: Pre-emergence herbicidal action; settings: application rate 20 g/ha
Text: as §3

Alopecurus myosuroides [22] = test: Pre-emergence herbicidal action; settings: application rate 80 g/ha
Text: as §3

Viola tricolor [23] = test: Pre-emergence herbicidal action; settings: application rate 20 g/ha
Text: as §3

Echinochloa crus-galli [24] = test: Pre-emergence herbicidal action
Text: as §3

Digitaria sanguinalis [25] = test: Pre-emergence herbicidal action; settings: application rate 20 g/ha
Text: as §3

Pharbitis purpurea [26] = test: Pre-emergence herbicidal action; settings: application rate 20 g/ha
Text: as §3

Oryza sativa = test: Post-emergence crop plant compatibility
Outline: as §2

Zea mays [27] = test: Pre-emergence crop plant compatibility; settings: application rate 20 g/ha
Text: B. Pre-Emergence Herbicidal Action and Crop Plant Compatibility
as §3, with “Seeds” for “B. Pre-Emergence Herbicidal Action and Crop Plant Compatibility Seeds”, “plants.” for “plants. Tables B1 to B13 below show the effects of selected compounds of the general formula (I) according to Tables I.1 to I.36 on various harmful plants and at an application rate corresponding to 80 g/ha or less, which were obtained by the experimental procedure mentioned above.”
Tables B14 to B16 below show the crop plant compatibilities of selected compounds of the general formula (I) according to Tables I.1 to I.36 at an application rate corresponding to 20 g/ha, which were obtained in experiments according to the experimental procedure mentioned above. Here, the observed effects on selected crop plants are stated in comparison to the untreated controls (values in %).

Zea mays [28] = test: Post-emergence crop plant compatibility
Outline: as §2

Compound | Amaranthus retroflexus (efficacy in %) (Amaranthus retroflexus [1]; application rate 5 g/ha) | Setaria viridis (efficacy in %) (Setaria viridis [2]; application rate 20 g/ha) | Matricaria inodora (efficacy in %) (Matricaria inodora [3]; application rate 5 g/ha) | Lolium rigidum (efficacy in %) (Lolium rigidum [4]) | Abutilon theophrasti (efficacy in %) (Abutilon theophrasti [6]; application rate 5 g/ha) | Veronica persica (efficacy in %) (Veronica persica [7]; application rate 5 g/ha) | Echinochloa crus-galli (efficacy in %) (Echinochloa crus-galli [11]; application rate 20 g/ha) | Digitaria sanguinalis (efficacy in %) (Digitaria sanguinalis [12]; application rate 20 g/ha) | Pharbitis purpurea (efficacy in %) (Pharbitis purpurea [13]; application rate 5 g/ha) | Echinochloa crus-galli (efficacy in %) (Echinochloa crus-galli [11]; application rate 5 g/ha) | Amaranthus retroflexus (efficacy in %) (Amaranthus retroflexus [14]) | Setaria viridis (efficacy in %) (Setaria viridis [15]) | Matricaria inodora (efficacy in %) (Matricaria inodora [16]) | Lolium rigidum (efficacy in %) (Lolium rigidum [17]) | Avena fatua (efficacy in %) (Avena fatua [18]) | Abutilon theophrasti (efficacy in %) (Abutilon theophrasti [19]) | Veronica persica (efficacy in %) (Veronica persica [20]) | Polygonum convolvulus (efficacy in %) (Polygonum convolvulus [21]) | Alopecurus myosuroides (efficacy in %) (Alopecurus myosuroides [22]) | Oryza sativa (efficacy in %) (Oryza sativa; application rate 5 g/ha) | further results
Cn1c(C(F)(F)F)cc(=O)n(-c2cc(Oc3cccnc3OCC(=O)OC3COC3)c(Cl)cc2F)c1=O [I.15-115] | 100% | 100% | 100% | 90% | 100% | 100% | 100% | 100% | 100% |  |  |  |  |  |  |  |  |  |  |  | Avena fatua (efficacy in %) (Avena fatua [5]): 90%; Polygonum convolvulus (efficacy in %) (Polygonum convolvulus [8]; application rate 5 g/ha): 100%; Alopecurus myosuroides (efficacy in %) (Alopecurus myosuroides [9]; application rate 5 g/ha): 80%; Viola tricolor (efficacy in %) (Viola tricolor [10]; application rate 5 g/ha): 100%; Stellaria media (efficacy in %) (Stellaria media): 100%; Hordeum murinum (efficacy in %) (Hordeum murinum): 100%; Triticum aestivum (efficacy in %) (Triticum aestivum; application rate 5 g/ha): 20%
Cn1c(C(F)(F)F)cc(=O)n(-c2cc(Oc3cccnc3OCC(=O)OCc3ccccn3)c(Cl)cc2F)c1=O [I.15-286] | 100% |  | 90% |  | 100% | 100% |  |  | 100% | 100% | 100% | 100% | 100% | 100% | 100% | 100% | 100% | 100% | 100% | 20% | Digitaria sanguinalis (efficacy in %) (Digitaria sanguinalis [12]; application rate 5 g/ha): 100%; Viola tricolor (efficacy in %) (Viola tricolor [23]): 100%; Echinochloa crus-galli (efficacy in %) (Echinochloa crus-galli [24]; application rate 20 g/ha): 80%; Digitaria sanguinalis (efficacy in %) (Digitaria sanguinalis [25]): 100%; Pharbitis purpurea (efficacy in %) (Pharbitis purpurea [26]): 100%; Zea mays (efficacy in %) (Zea mays [27]): 20%
COCCOCCOC(=O)COc1ncccc1Oc1cc(-n2c(=O)cc(C(F)(F)F)n(C)c2=O)c(F)cc1[N+](=O)[O-] [I.14-23] |  | 100% |  |  |  |  | 100% | 100% |  |  |  |  |  |  |  |  |  |  |  |  | Amaranthus retroflexus (efficacy in %) (Amaranthus retroflexus [1]; application rate 20 g/ha): 100%; Matricaria inodora (efficacy in %) (Matricaria inodora [3]; application rate 20 g/ha): 100%; Abutilon theophrasti (efficacy in %) (Abutilon theophrasti [6]; application rate 20 g/ha): 100%; Veronica persica (efficacy in %) (Veronica persica [7]; application rate 20 g/ha): 100%; Polygonum convolvulus (efficacy in %) (Polygonum convolvulus [8]; application rate 20 g/ha): 100%; Viola tricolor (efficacy in %) (Viola tricolor [10]; application rate 20 g/ha): 100%; Pharbitis purpurea (efficacy in %) (Pharbitis purpurea [13]; application rate 20 g/ha): 100%; Oryza sativa (efficacy in %) (Oryza sativa; application rate 20 g/ha): 10%; Zea mays (efficacy in %) (Zea mays [28]; application rate 20 g/ha): 10%
Cn1c(C(F)(F)F)cc(=O)n(-c2cc(Oc3cccnc3OCC(=O)OCc3cccnn3)c(Cl)cc2F)c1=O [I.15-301] | 100% |  |  |  | 100% | 100% |  |  | 100% | 100% | 100% | 100% | 100% | 100% | 100% | 100% | 80% | 100% | 100% | 20% | Viola tricolor (efficacy in %) (Viola tricolor [23]): 100%; Echinochloa crus-galli (efficacy in %) (Echinochloa crus-galli [24]; application rate 20 g/ha): 80%; Digitaria sanguinalis (efficacy in %) (Digitaria sanguinalis [25]): 100%; Pharbitis purpurea (efficacy in %) (Pharbitis purpurea [26]): 100%; Zea mays (efficacy in %) (Zea mays [27]): 0%
Cn1c(C(F)(F)F)cc(=O)n(-c2cc(Sc3cccnc3SCC(=O)OCC3CCOC3)c(Cl)cc2F)c1=O (centres unmarked) [I.10-72] | 100% |  |  | 80% | 100% |  |  |  | 100% | 100% |  |  |  |  |  |  |  |  |  | 20% | Setaria viridis (efficacy in %) (Setaria viridis [2]; application rate 5 g/ha): 90%; Matricaria inodora (efficacy in %) (Matricaria inodora [3]; application rate 20 g/ha): 100%; Veronica persica (efficacy in %) (Veronica persica [7]; application rate 20 g/ha): 80%; Polygonum convolvulus (efficacy in %) (Polygonum convolvulus [8]; application rate 5 g/ha): 100%; Alopecurus myosuroides (efficacy in %) (Alopecurus myosuroides [9]; application rate 20 g/ha): 80%; Viola tricolor (efficacy in %) (Viola tricolor [10]; application rate 5 g/ha): 100%; Stellaria media (efficacy in %) (Stellaria media): 90%; Digitaria sanguinalis (efficacy in %) (Digitaria sanguinalis [12]; application rate 5 g/ha): 80%; Hordeum murinum (efficacy in %) (Hordeum murinum): 80%; Triticum aestivum (efficacy in %) (Triticum aestivum; application rate 20 g/ha): 20%
Cn1c(C(F)(F)F)cc(=O)n(-c2cc(Oc3cccnc3OCC(=O)OCc3ccc(C(F)(F)F)nc3)c(Cl)cc2F)c1=O [I.15-350, [6-(Trifluoromethyl)pyridin-3-yl]methyl [(3-{2-chloro-4-fluoro-5-[3-methyl-2,6-dioxo-4-(trifluoromethyl)-3,6-dihydropyrimidin-1(2H)-yl]phenoxy}pyridin-2-yl)oxy]acetate] | 100% |  | 80% |  | 100% | 100% |  |  | 100% | 100% | 100% | 100% | 100% | 100% | 100% | 100% | 100% | 100% | 100% | 20% | Viola tricolor (efficacy in %) (Viola tricolor [23]): 100%; Echinochloa crus-galli (efficacy in %) (Echinochloa crus-galli [24]; application rate 80 g/ha): 100%; Digitaria sanguinalis (efficacy in %) (Digitaria sanguinalis [25]): 100%; Pharbitis purpurea (efficacy in %) (Pharbitis purpurea [26]): 100%; Triticum aestivum (efficacy in %) (Triticum aestivum; application rate 5 g/ha): 20%; Zea mays (efficacy in %) (Zea mays [27]): 0%
CCOCCOC(=O)COc1ncccc1Oc1cc(-n2c(=O)cc(C(F)(F)F)n(C)c2=O)c(F)cc1[N+](=O)[O-] [I.14-2] |  | 100% |  | 90% |  |  | 100% | 100% |  |  |  |  |  |  |  |  |  |  |  |  | Amaranthus retroflexus (efficacy in %) (Amaranthus retroflexus [1]; application rate 20 g/ha): 100%; Matricaria inodora (efficacy in %) (Matricaria inodora [3]; application rate 20 g/ha): 100%; Avena fatua (efficacy in %) (Avena fatua [5]): 100%; Abutilon theophrasti (efficacy in %) (Abutilon theophrasti [6]; application rate 20 g/ha): 100%; Veronica persica (efficacy in %) (Veronica persica [7]; application rate 20 g/ha): 100%; Alopecurus myosuroides (efficacy in %) (Alopecurus myosuroides [9]; application rate 20 g/ha): 100%; Viola tricolor (efficacy in %) (Viola tricolor [10]; application rate 20 g/ha): 100%; Pharbitis purpurea (efficacy in %) (Pharbitis purpurea [13]; application rate 20 g/ha): 100%; Oryza sativa (efficacy in %) (Oryza sativa; application rate 20 g/ha): 10%; Zea mays (efficacy in %) (Zea mays [28]; application rate 5 g/ha): 20%

Reference: patent publication US20220289708A1, “SUBSTITUTED N-PHENYL URACILS, SALTS THEREOF AND THEIR USE AS HERBICIDAL AGENTS” (Bayer Aktiengesellschaft, priority 2019, published 2022)
